26 compounds from patent US12565504B2, “Spirocyclic O-glycoprotein-2-acetamido-2-deoxy-3-d-glucopyranosidase inhibitors” (BIOGEN MA INC., priority 2019, dated 2026) can be followed below.

For orientation: pIC50 means −log10 of the IC50, conventionally taken in molar units.

For one experiment, the target named is OGA (S400 O-GLCNAC) (Homo sapiens (Human), UniProt O60502). Briefly: Cellular OGA-Tau MSD Assay. The class given is cell-based. The following applies: HEK-293T cells transfected with OGT and Tau-V5; Tau-S400-GlcNAc MSD readout. The procedure:
HEK-293T cells were transfected with OGT and Tau-V5 plasmids using Lipofectamine and grown overnight. Next day, the cells were collected and re-plated at 1×10^5 cells per well in 96 well plates. Cells were incubated for 4 hr at 37° C., before compounds were added at 1 uM, with 3-fold dilutions in a 10-point titration. Cell plates were incubated with compounds overnight at 37° C. The next day media was removed from wells by gentle aspiration and 120 ul of 1× Cell Lysis buffer mixed with protease and phosphatase cocktail added to each well. A freeze thaw was performed at −80° C., then mixed before transferring 50 μl to MSD plates coated with V5-tag antibody to capture Tau. MSD Plates were incubated overnight at 4° C., on a plate shaker. The following day, plates were washed and incubated with Tau-S400-GlcNAc antibody for 2 hr and then developed with rabbit Sulfo-tag antibody. Final read out was carried out on an MSD 600 reader. The data was analyzed using Graph Pad or Genedata, the data was normalized and % activity versus log of compound concentration was plotted. The ICso values were obtained from a 4 parameter fit.

Experiment [1] addresses Recombinant full length human OGA enzyme (Homo sapiens (Human), UniProt O60502). Briefly: OGA Enzyme Inhibition Biochemical Assay. The conditions noted are these: 1 nM OGA, 100 μM 4-MUGlcNAc, 90 minutes, pH 6.4. As for the experimental part:
Recombinant full length human OGA enzyme was purchased from Origene. 4-MUGlcNAc substrate was purchased from Sigma. All other reagents were purchased from Sigma or Fisher. Assay buffer consists of the McIlvaine buffer system, pH 6.4 (0.2M Na2HPO4 mixed with 0.1M citric acid) and 0.01% BSA. […] Reactions were incubated for 90 minutes at room temperature and quenched with 40 μl of 3M glycine, pH 10 and read on a Perkin Elmer Envision plate reader (Ex: 355 nm/Em: 460 nm). Compounds were tested with a 10-point dose-response starting from 20 μM with a 4-fold dilution. Data was fit using GraphPad Prism using a 4-parameter fit with variable slope.

pIC50: −log10 of the molar value.

Sequence of OGA (S400 O-GLCNAC) (O60502 whole entry): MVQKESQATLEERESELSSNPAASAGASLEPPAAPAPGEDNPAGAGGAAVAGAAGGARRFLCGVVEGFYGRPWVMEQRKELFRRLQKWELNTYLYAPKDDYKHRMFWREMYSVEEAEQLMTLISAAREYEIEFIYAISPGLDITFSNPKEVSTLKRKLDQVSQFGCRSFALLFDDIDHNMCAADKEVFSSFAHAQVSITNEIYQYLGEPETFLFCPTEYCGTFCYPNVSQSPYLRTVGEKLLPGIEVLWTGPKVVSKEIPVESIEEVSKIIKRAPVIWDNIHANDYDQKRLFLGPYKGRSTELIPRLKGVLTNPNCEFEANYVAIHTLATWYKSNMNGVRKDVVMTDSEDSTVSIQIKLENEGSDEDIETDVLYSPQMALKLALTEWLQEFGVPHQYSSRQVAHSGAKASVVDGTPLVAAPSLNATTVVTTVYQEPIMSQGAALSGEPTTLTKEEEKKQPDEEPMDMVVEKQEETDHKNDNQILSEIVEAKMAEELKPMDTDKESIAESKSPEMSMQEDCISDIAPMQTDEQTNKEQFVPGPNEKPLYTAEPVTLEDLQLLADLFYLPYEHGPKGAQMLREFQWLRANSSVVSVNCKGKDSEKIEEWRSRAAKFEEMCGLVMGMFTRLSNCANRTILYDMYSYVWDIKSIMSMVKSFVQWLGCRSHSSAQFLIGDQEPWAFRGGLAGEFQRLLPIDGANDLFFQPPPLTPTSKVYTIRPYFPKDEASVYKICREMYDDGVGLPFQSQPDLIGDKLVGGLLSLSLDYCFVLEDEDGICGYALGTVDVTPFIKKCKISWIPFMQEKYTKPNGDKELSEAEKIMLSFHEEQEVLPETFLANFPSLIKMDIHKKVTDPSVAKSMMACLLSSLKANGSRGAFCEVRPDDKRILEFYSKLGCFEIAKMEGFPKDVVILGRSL
Sequence of Recombinant full length human OGA enzyme (O60502 whole entry): as above

With `CC(=O)Nc1nc(F)c(CN2CC3(C[C@@H]2C)OCc2ncccc23)s1` (stereo partly drawn) [Example 79, N-(4-Fluoro-5-(((5′S)-5′-methyl-7H-spiro[furo[3,4-b]pyridine-5,3′-pyrrolidin]-1′-yl)methyl)thiazol-2-yl)acetamide], the pIC50 at OGA (S400 O-GLCNAC) is 8.30.

As to `CC(=O)Nc1nc(F)c(CN2CCC[C@]3(C2)OCc2c3ccnc2Cl)s1` [Example 84-b, (S)—N-(5-((4-chloro-3H-spiro[furo[3,4-c]pyridine-1,3′-piperidin]-1′-yl)methyl)-4-fluorothiazol-2-yl)acetamide], the pIC50 against OGA (S400 O-GLCNAC) is < 6.00; in experiment [1], 6.51.

As for `CC(=O)Nc1nc(F)c(CN2C[C@]3(C[C@@H]2C)OCc2cnccc23)s1` (single isomer, unassigned) [Example 64-b], in experiment [1], the pIC50 was 6.77.

As to `CC(=O)Nc1nc(F)c(CN2C[C@@]3(Cc4ccccc4O3)C[C@@H]2C)s1` [Example 1, N-(4-Fluoro-5-(((2R,5′S)-5′-methyl-3H-spiro[benzofuran-2,3′-pyrrolidin]-1′-yl)methyl)thiazol-2-yl)acetamide], the results for the pIC50 (on OGA (S400 O-GLCNAC); in experiment [1]) were 6.06 and 7.82, respectively.

Regarding `CC(=O)Nc1nc(F)c(CN2CCCC3(C2)OCc2cccnc23)s1` (stereo not shown) [Example 61, N-(5-((5H-Spiro[furo[3,4-b]pyridine-7,3′-piperidin]-1′-yl)methyl)-4-fluorothiazol-2-yl)acetamide], in experiment [1], the pIC50 is 7.54.

Take `CC(=O)Nc1ncc(CN2C[C@]3(C[C@@H]2C)OCc2cnccc23)s1` (single isomer, unassigned) [Example 65-b]: in experiment [1], the pIC50 is 6.36.

Take `COc1nccc2c1C[C@]1(C[C@H](C)N(Cc3sc(NC(C)=O)nc3F)C1)O2` [Example 18, N-(4-Fluoro-5-(((2R,5′S)-4-methoxy-5′-methyl-3H-spiro[furo[3,2-c]pyridine-2,3′-pyrrolidin]-1′-yl)methyl)thiazol-2-yl)acetamide]: the pIC50 at OGA (S400 O-GLCNAC) was 8.40; in experiment [1], 8.70.

On to `CC(=O)Nc1nc(F)c(CN2C[C@@]3(Cc4ccncc4O3)C[C@@H]2C)s1` [Example 9, N-(4-Fluoro-5-(((2R,5′S)-5′-methyl-3H-spiro[furo[2,3-c]pyridine-2,3′-pyrrolidin]-1′-yl)methyl)thiazol-2-yl)acetamide], for which the pIC50 against OGA (S400 O-GLCNAC) was 7.92; in experiment [1], 9.00.

For the compound `CC(=O)Nc1nc(F)c(CN2CCCC3(C2)OCc2cnccc23)s1` (racemic) [Example 69, N-(5-((3H-Spiro[furo[3,4-c]pyridine-1,3′-piperidin]-1′-yl)methyl)-4-fluorothiazol-2-yl)acetamide], the pIC50 at OGA (S400 O-GLCNAC) is 7.86; in experiment [1], 8.49.

For `CC(=O)Nc1nc(F)c(CN2CCC3(Cc4ccncc4O3)C2)s1` (stereo not shown) [Example 90, N-(5-((3H-spiro[furo[2,3-c]pyridine-2,3′-pyrrolidin]-1′-yl)methyl)-4-fluorothiazol-2-yl)acetamide], in experiment [1], the pIC50 is 6.92.

As to `CC(=O)Nc1nc(F)c(CN2C[C@@]3(C[C@@H]2C)OCc2ccncc23)s1` (single isomer, unassigned) [Example 72-a], in experiment [1], the pIC50 is 7.52.

With `CC(=O)Nc1ncc(CN2CCC3(Cc4cccnc4O3)C2)s1` (stereo not shown) [Example 14, N-(5-((3H-Spiro[furo[2,3-b]pyridine-2,3′-pyrrolidin]-1′-yl)methyl)thiazol-2-yl)acetamide], the pIC50 in experiment [1] is 5.42.

As for `CC(=O)Nc1ncc(CN2CCC3(Cc4cnccc4O3)C2)s1` (stereo not shown) [Example 13, N-(5-((3H-Spiro[furo[3,2-c]pyridine-2,3′-pyrrolidin]-1′-yl)methyl)thiazol-2-yl)acetamide], the pIC50 is 6.10 against OGA (S400 O-GLCNAC) and 6.89 in experiment [1].

Turning to `CC(=O)Nc1nc(F)c(CN2CCC3(C2)OCc2cnccc23)s1` (stereo not shown) [Example 67, N-(5-((3H-Spiro[furo[3,4-c]pyridine-1,3′-pyrrolidin]-1′-yl)methyl)-4-fluorothiazol-2-yl)acetamide], the pIC50 on OGA (S400 O-GLCNAC) is 6.00; in experiment [1] it was 6.92.

Consider `COc1cc2c(cn1)O[C@]1(C2)C[C@H](C)N(Cc2cnc(NC(C)=O)s2)C1` [Example 17, N-(5-(((2R,5′S)-5-Methoxy-5′-methyl-3H-spiro[furo[2,3-c]pyridine-2,3′-pyrrolidin]-1′-yl)methyl)thiazol-2-yl)acetamide], for which the pIC50 was 8.10 against OGA (S400 O-GLCNAC) and > 9.00 in experiment [1].

Turning to `CC(=O)Nc1nc(F)c(CN2C[C@]3(C[C@@H]2C)OCc2ccncc23)s1` (single isomer, unassigned) [Example 72-b], in experiment [1], the pIC50 is 6.96.

Regarding `CC(=O)Nc1nc(F)c(CN2CC3(Cc4nc(O)cnc4O3)C[C@@H]2C)s1` (stereo partly drawn) [Example 51, N-(4-fluoro-5-(((5′S)-2-hydroxy-5′-methyl-7H-spiro[furo[2,3-b]pyrazine-6,3′-pyrrolidin]-1′-yl)methyl)thiazol-2-yl)acetamide], the pIC50 at OGA (S400 O-GLCNAC) was 7.23; in experiment [1], 7.04.

`CC(=O)Nc1nc(F)c(CN2CCC3(Cc4cccnc4O3)C2)s1` (stereo not shown) [Example 15, N-(5-((3H-Spiro[furo[2,3-b]pyridine-2,3′-pyrrolidin]-1′-yl)methyl)-4-fluorothiazol-2-yl)acetamide]: the pIC50 in experiment [1] is 5.77.

On to `CC(=O)Nc1ncc(CN2CCCC3(CCc4ccccc43)C2)s1` (stereo not shown) [Example 53, N-(5-((2,3-Dihydrospiro[indene-1,3′-piperidin]-1′-yl)methyl)thiazol-2-yl)acetamide], for which the pIC50 is 6.27 at OGA (S400 O-GLCNAC) and 7.14 in experiment [1].

In the case of `CCOc1cc2c(cn1)O[C@]1(C2)C[C@H](C)N(Cc2sc(NC(C)=O)nc2F)C1` [Example 46, N-(5-(((2R,5′S)-5-Ethoxy-5′-methyl-3H-spiro[furo[2,3-c]pyridine-2,3′-pyrrolidin]-1′-yl)methyl)-4-fluorothiazol-2-yl)acetamide], the pIC50 was 8.52 at OGA (S400 O-GLCNAC) and > 9.00 in experiment [1].

As to `CC(=O)Nc1ncc(CN2C[C@]3(C[C@@H]2C)OCc2ccncc23)s1` [Example 71-b, N-(5-(((3R,5′S)-5′-methyl-1H-spiro[furo[3,4-c]pyridine-3,3′-pyrrolidin]-1′-yl)methyl)thiazol-2-yl)acetamide], in experiment [1], the pIC50 is 6.59.

For `CC(=O)Nc1nc(F)c(CN2CCC3(Cc4cc(Cl)ccc4O3)C2)s1` (stereo not shown) [Example 6, N-(5-((5-Chloro-3H-spiro[benzofuran-2,3′-pyrrolidin]-1′-yl)methyl)-4-fluorothiazol-2-yl)acetamide], in experiment [1], the pIC50 is 6.85.

For the compound `COc1nccc2c1COC21C[C@H](C)N(Cc2sc(NC(C)=O)nc2F)C1` (stereo partly drawn) [Example 77, N-(4-Fluoro-5-(((5′S)-4-methoxy-5′-methyl-3H-spiro[furo[3,4-c]pyridine-1,3′-pyrrolidin]-1′-yl)methyl)thiazol-2-yl)acetamide], the pIC50 on OGA (S400 O-GLCNAC) was 8.15.

For `CC(=O)Nc1ncc(CN2CCC3(Cc4cc(Cl)ccc4O3)C2)s1` (stereo not shown) [Example 5, N-(5-((5-Chloro-3H-spiro[benzofuran-2,3′-pyrrolidin]-1′-yl)methyl)thiazol-2-yl)acetamide], the pIC50 in experiment [1] was 6.82.

With `CC(=O)Nc1ncc(CN2C[C@@]3(C[C@@H]2C)OCc2cnccc23)s1` (single isomer, unassigned) [Example 65-a], the pIC50 in experiment [1] was 7.62.

On to `CC(=O)Nc1ncc(CN2C[C@@]3(C[C@@H]2C)OCc2ccncc23)s1` [Example 71-a, N-(5-(((3S,5′S)-5′-Methyl-1H-spiro[furo[3,4-c]pyridine-3,3′-pyrrolidin]-1′-yl)methyl)thiazol-2-yl)acetamide], for which the pIC50 in experiment [1] was 6.82.
